Source: patent US5288905A, “Glycyl urea derivatives as anti-convulsants” (G. D. Searle & Co., priority 1991, dated 1994)

What was measured:
mice [1] = experiment: Prevention of bicuculline (BIC)-induced convulsions in mice; type: in vivo, male Swiss albino mice; conditions: Mus musculus, po; 30 mg/kg orally; bicuculline 0.6 mg/kg intravenously; four groups of five animals; read-out: Percentage of Mice Protected from Bicuculline
Description: (§1) Treatment of a mammal afflicted by or susceptible to certain CNS disorders is accomplished by administration of a therapeutically-effective amount of a compound of Formula I. In particular, Compounds #1-11 of Table II were evaluated by in vitro and in vivo animal model assays to determine the pharmacological properties of such compounds and their likely suitability for use as therapeutic drugs in humans. These biological assays, as described below, consisted of prevention of induced convulsions in mice, determination of acute toxicity in mice and animal behavior assays. Except as otherwise specified, the animals used in the in vivo tests were male Swiss albino mice weight 22 to 33 g [CDl, Charles River, France], housed in groups of 10 on a 12-hour dark-light cycle for at least one week before use and fasted overnight prior to testing.
(§2) Compounds of Formula I were evaluated as inhibitors of convulsions and death induced by different convulsant agents: 3-mercaptopropionic acid (3-MPA; 120 mg/kg subcutaneously), bicuculline (BIC, 0.6 mg/kg intravenously), pentylenetetrazole (PTZ, 55 mg/kg intravenously) and supramaximal electroconvulsive shocks (ECS evoked by a current intensity of 48 mA, 50 Hz. 0.2 sec duration, 10 msec square pulse, corneal electrodes) [W. van Dorsser, D. Barris, A. Cordi and J. Roba, Arch. Int. Pharmacodyn., 266, 239-249 (1983)]. The compounds of the invention were administered orally at a dosage of either 100 mg/kg or 30 mg/kg in a volume of 10 ml/kg each to 5 mice. Tonic convulsions and the number of dead mice were noted. Results are given in Table III as a score which represents the total number of mice protected from convulsions induced by 3-mercaptopropionic acid at dose of 100 mg/kg for two groups of five animals, or the percentage of mice protected from convulsions induced by bicuculline at a dose of 30 mg/kg for four groups of five animals.

mice [2] = experiment: Prevention of 3-mercaptopropionic acid (3-MPA)-induced convulsions in mice; type: in vivo, male Swiss albino mice; conditions: for Number of Mice Protected From Convulsions Induced by 3-MPA at 100 mg/kg, 30 min interval / Number of Mice Protected From Convulsions Induced by 3-MPA at 100 mg/kg, 2 hr interval: 100 mg/kg orally, 3-MPA 120 mg/kg subcutaneously, two groups of five animals; for Number of Mice Protected From Convulsions Induced by 3-MPA at 100 mg/kg, 30 min interval: 30 min before convulsions induced; for Number of Mice Protected From Convulsions Induced by 3-MPA at 100 mg/kg, 2 hr interval: 2 hr before convulsions induced
Description: as §1, §2
(§3) Based upon data generated from the previously-described anti-convulsant experiments, ED50 values were calculated at which Compound #6 inhibits convulsions induced by the convulsant agents listed in Table IV.

[3] = Acute toxicity in mice after oral administration; parameters: species or system male Swiss albino mice; conditions: mouse, in vivo, mortality over 15 days
Description: as §1
The acute toxicity of compounds of the invention was determined after oral administration of the test compound to mice. Compound to be tested was suspended in a 1% tragacanth gum mucilage, and was administered by means of an intragastric probe to a group of three male mice. Doses used in the test were determined by observing toxic effects on the mice, which doses varied from 3,000 mg/kg down to about 3 mg/kg. The mortality was recorded over a period of 15 days. The LD50 results reported in Table V were calculated according to published methods [Lichtfield and Wilcoxon, J. Pharmacol. Exp. Ther., 96, 99 (1949)] and expressed in mg of test compound per kilogram of mouse body weight.

mice [4] = tested on: mice; parameters: species or system male Swiss albino mice; conditions: mouse, in vivo, po
Description: as §1
Behavioral effects of compounds of the invention on animals were determined by observations taken at 5 to 6 hours and at 24 hours after administration of compounds in the acute toxicity studies. Determinations were made based on a method derived from that of S. Irwin [See R. A. Turner, Screening Methods in Pharmacology, Chapter 3, pages 22-34, Academic Press, N.Y. (1965)]. If an anomaly were noted, the observation was extended and smaller doses were tested. Possible types of behavior to be observed are as follows: analgesia (AAG), convulsions (CON), depression (DEP), exophthalmia (EOP), excitation (EXC), hyperalgesia (HAG), hypothermia (ATH), hypotonia (ATN), piloerection (PIE), palpebral ptosis (PTO), reduction of the pinna reflux (RPI), reduction of the rearing reflex (RRE), reduction of the flexion reflex (RRF), sedation (SED), tremors (TRE), cyanosis (CYA), diarrhea (DIA), increase of the pinna reflex (HPI), increase of the flexion reflex (HRF), dyspnea (DYS), toxic (TOX), zero ("0") means no effect. Behaviors observed are reported in Table V by numbers which represent the dose at which the behavior is observed.

mice [5] = experiment: Inhibition of convulsions induced by supramaximal electroconvulsive shocks (ECS) in mice; type: in vivo, male Swiss albino mice; conditions: Mus musculus, po; ECS 48 mA, 50 Hz, 0.2 sec, corneal electrodes; compound orally; read-out: Inhibition of Convulsions by Cpd. #6 (ED50), ECS
Description: as §1, with “Except as otherwise specified, the animals used in the in vivo tests were male Swiss albino mice weight 22 to 33 g [CDl, Charles River, France], housed in groups of 10 on a 12-hour dark-light cycle for at least one week before use and fasted overnight prior to testing.” left out
(§4) Compounds of Formula I were evaluated as inhibitors of convulsions and death induced by different convulsant agents: 3-mercaptopropionic acid (3-MPA; 120 mg/kg subcutaneously), bicuculline (BIC, 0.6 mg/kg intravenously), pentylenetetrazole (PTZ, 55 mg/kg intravenously) and supramaximal electroconvulsive shocks (ECS evoked by a current intensity of 48 mA, 50 Hz. 0.2 sec duration, 10 msec square pulse, corneal electrodes) [W. van Dorsser, D. Barris, A. Cordi and J. Roba, Arch. […]
as §3

mice [6] = experiment: Inhibition of pentylenetetrazole (PTZ)-induced convulsions in mice; type: in vivo, male Swiss albino mice; conditions: Mus musculus, po; convulsant PTZ 55 mg/kg intravenously; compound orally; read-out: Inhibition of Convulsions by Cpd. #6 (ED50), PZT
Description: as §1, with “Except as otherwise specified, the animals used in the in vivo tests were male Swiss albino mice weight 22 to 33 g [CDl, Charles River, France], housed in groups of 10 on a 12-hour dark-light cycle for at least one week before use and fasted overnight prior to testing.” left out
as §4, §3

rat frontal cortex = experiment: Chronic focal epilepsy assay (cobalt powder on rat frontal cortex, EEG spike activity); type: in vivo; conditions: ip, intraperitoneal, cobalt-induced spikes, read-out: threshold dose for inhibiting spike activities
Description: In a model of chronic focal epilepsy where cobalt powder is placed on rat frontal cortex, the animals develop, after several days, chronic expression of afterdischarge-like spike activity which can be recorded by EEG. Compound #6 has, when administered by intraperitoneal route, a threshold dose of 200 mg/kg for inhibiting these spike activities with the effect being observed from 30 to 90 minutes.

mice [7] = experiment: 5HTP-induced head twitch in mice; type: in vivo, male Swiss albino mice; conditions: Mus musculus, po, 2 hours before 5HTP challenge (10 mg/kg i.p.) after nialamide 50 mg/kg i.p.; read-out: ED50 (inhibition of 5HTP-induced head twitches)
Description: as §1
Compound #6 was evaluated for inhibition of head twitches produced in mice by administration of L-5-hydroxytryptophan (5HTP, 10 mg/kg intraperitoneously) after nialamide treatment (50 mg/kg intraperitoneal, 22 hours before the test). The head twitches were counted for 45 min. starting 15 min. after 5HTP administration. [E. Friedmann et al.; Europ. J. Pharmocol., 89, 69-76 (1983)].

Structure (SMILES)	responders at 30 mg/kg (mice [1]) [%]	Number of Mice Protected From Convulsions Induced by 3-MPA at 100 mg/kg, 30 min interval (mice [2]) [mice]	LD50 at 360 h [3] [mg/kg]	Behavior (dose at which the behavior is observed : behavior) (mice [4])	Number of Mice Protected From Convulsions Induced by 3-MPA at 100 mg/kg, 2 hr interval (mice [2]) [mice]	ED50 (mice [2]; Mus musculus, po, convulsant 3-MPA 120 mg/kg subcutaneously, compound orally, read-out: Inhibition of Convulsions by Cpd. #6 (ED50), 3-MPA) [mg/kg]	ED50 (mice [5]) [mg/kg]	ED50 (mice [6]) [mg/kg]	minimal effective dose (rat frontal cortex) [mg/kg]	ED50 (mice [7]) [mg/kg]
CCCCCCCCNC(=O)NC(=O)CNCCCCC [Compound 1, 1-octyl-3-(2-pentylamino-1-oxoethyl)urea]	35	0	> 1000	1000:0 mg/kg						
CCCCCNCC(=O)NC(=O)NCCc1ccccc1 [Compound 2, 1-(2-phenylethyl)-3-(2-pentylamino-1-oxoethyl)urea]	25	3	> 1000	1000:SED, RPI, RRE						
CCCCCCCCNC(=O)NC(=O)CNCCc1ccccc1 [Compound 3, 1-octyl-3-[2-(2-phenylethyl)amino-1-oxoethyl]urea]	55	6	> 3000	3000:SED, ATN	3					
CCCCCCCCNCC(=O)NC(=O)NCCCCCCCC [Compound 4, 1-octyl-3-(2-octylamino-1-oxoethyl)urea]	35	4	> 3000	3000:0 mg/kg	3					
O=C(CNCCc1ccccc1)NC(=O)NCCc1ccccc1 [Compound 5, 1-(2-phenylethyl)-3-[2-(2-phenylethyl)amino-1-oxoethyl]urea]	45	6	1750	3000:TOX, DEP	1					
CCCCCCCCNCC(=O)NC(=O)NCCc1ccccc1 [Compound 6, 1-(2-phenylethyl)-3-(2-octylamino-1-oxoethyl)urea]	35	9	> 3000	1000:SED, ATN	9	16	60	56	200	200
CCCCCNC(=O)NC(=O)CNCCc1ccccc1 [Compound 7, 1-pentyl-3-[2-(2-phenylethyl)amino-1-oxoethyl]urea]	25	1	> 3000	1000:SED						
CCCCCNCC(=O)NC(=O)NCCCCC [Compound 8, 1-pentyl-3-(2-pentylamino-1-oxoethyl)urea]	40	0	> 3000							
CCCCCCCCNCC(=O)NC(=O)NCCCCC [Compound 9, 1-pentyl-3-(2-octylamino-1-oxoethyl)urea]	35	7	> 1000	1000:0 mg/kg	4					
CNC(=O)NC(=O)CNC(c1ccccc1)c1ccccc1 [Compound 10, 1-methyl-3-(2-diphenylmethylamino-1-oxoethyl)urea]		1								
O=C(CNC(c1ccccc1)c1ccccc1)NC(=O)NCCc1ccccc1 [Compound 11, 1-(2-phenylethyl)-3-(2-diphenylmethylamino-1-oxoethyl)urea]		0								
